Source: patent US4469689A, “Sulfonate containing ester prodrugs of corticosteroids” (The Upjohn Company, priority 1983, dated 1984)
Where a name gives a salt, the structure may show the parent alone.

Experiments:
mice = conditions: M. Kawamura et al., Yakugaku Zasshi, 91, 871 (1971); cited from earlier work
[1] = hydrolysis of dilute aqueous solutions, t90% estimated from hydrolysis rate constants at 25° C. (Table I); assay type: physicochemical; conditions: pH 4.75 (pH of optimum stability), dilute aqueous solution
Protocol: From the hydrolysis rate constants determined at 25° C. at various pH vlaues for dilute aqueous solutions of the compounds of the invention, estimates of t90% (time for 10% hydrolysis) may be calculated.

[2] = base catalyzed hydrolysis rate in concentrated versus dilute solution; assay type: physicochemical; conditions: 0.267 M vs 5×10^-4 M
Source text: The actual shelf-life of formulations of the above compounds would be expected to differ fom the above estimates for two reasons: (1) The solubility of the parent corticosteroid formed on hydrolysis may be exceeded prior to 10% degradation of the ester. Micelle formation by the intact prodrugs of Formula I results in solubilization of free corticosteroid thereby prolonging shelf-life. The degree of solubilization varies with the ester concentration, nature of the pro-moiety, and the structure of the corticosteroid. (2) Micelle formation by the intact prodrug in concentrated solutions results in stabilization of the ester linkage toward base catalyzed hydrolysis. For example, the base catalyzed hydrolysis rate in a 0.267 M solution of the compound of Example 1 is less than one-seventh the rate in a 5×10^-4 M solution.

[3] = background statement; cited from earlier work

## C[C@]12CCC(=O)C=C1CC[C@@H]1[C@@H]2[C@@H](O)C[C@@]2(C)[C@H]1CC[C@]2(O)C(=O)COS(=O)(=O)O [21-sulfate of hydrocortisone]
mice
  activity in mice: inactive

## C[C@H]1C[C@@H]2[C@H]([C@@H](O)C[C@@]3(C)[C@H]2CC[C@]3(O)C(=O)COC(=O)CCCCCS(=O)(=O)O)[C@@]2(C)C=CC(=O)C=C12 [Example 1, 6α-Methylprednisolone, 21-(6-sulfohexanoate), sodium salt]
[1]
  t90% (time for 10% hydrolysis): 2.7 years
[2]
  base catalyzed hydrolysis rate in a 0.267 M solution relative to the rate in a 5×10^-4 M solution: less than one-seventh

## C[C@H]1C[C@@H]2[C@H]([C@@H](O)C[C@@]3(C)[C@H]2CC[C@]3(O)C(=O)COC(=O)CCCCCCCCCCS(=O)(=O)O)[C@@]2(C)C=CC(=O)C=C12 [Example 2, 6α-Methylprednisolone, 21-(11-sulfohendecanoate), sodium salt]
[1]
  t90% (time for 10% hydrolysis): 3.0 years

## C[C@]12C=CC(=O)C=C1CC[C@@H]1[C@@H]2C(=O)C[C@@]2(C)[C@H]1CC[C@]2(O)C(=O)CO [prednisone]
[3]
  water solubility: generally poorly water soluble
